Patent publication US8110605B2, “Compound for inactivating viruses and bacteria and method of making same” (priority 2009, dated 2012)
Where “and” joins values, the source holds several entries; their conditions need not be identical. Equal values may be shown once. Read-outs that look alike come from different tables or passages of the source.

Key:
[1] = tested on: Tamiflu™-resistant H1N1 subtype influenza virus (A/TW/066/09) virions
[2] = tested on: Tamiflu™-resistant strain H1N1 influenza virus (A/TW/066/09); assay type: cell-based

SMILES: O=C(O)C(CCCCCCCCCCS)C(=O)O [2-(10-mercaptodecyl)-propanedioic acid]
- maximum height of particles (AFM cursor profile) [1]: ~6.95 nm and ~5.28 nm
- viral morphology by AFM [1]: disrupted and somewhat flattened
- calculated RMS height of treated particles ([1]; 30 ppm): 7.09±0.42 nm
- calculated RMS height of treated particles ([1]; 300 ppm): 5.39±0.23 nm
- concentration protecting cells against infection by Tamiflu-resistant H1N1 influenza virus (as low as) [2]: 30 ppm
- CPE, Tamiflu-resistant H1N1 influenza virus treated with compound ([2]; 3 ppm): +
- CPE, Tamiflu-resistant H1N1 influenza virus treated with compound ([2]; 30 ppm): −
- CPE, Tamiflu-resistant H1N1 influenza virus treated with compound ([2]; 100 ppm): −
- CPE, Tamiflu-resistant H1N1 influenza virus treated with compound ([2]; 300 ppm): −
- CPE, Tamiflu-resistant H1N1 influenza virus treated with compound ([2]; 1,000 ppm): CTX
- CPE, Tamiflu-resistant H1N1 influenza virus treated with compound ([2]; 3,000 ppm): CTX
